Marks after values point to notes of the source that are not given here.
Tests used:
[1] = tested on: MPTP-treated mice; assay: Hypokinesia (reduction in locomotor activity) induced by MPTP; type: in vivo; settings: 12 or 24 mg/kg i.p. 30 min before MPTP (20 mg/kg/day x 7), last three days
[2] = tested on: LPS-treated mice; assay: Striatal dopamine and metabolites in LPS-treated mice; type: in vivo; settings: for Concentration DA in the striatum: 3 weeks after LPS
Source text: (§1) Control animals received striatal injection with PBS.
Mice were sacrificed at 3 weeks after LPS treatment.

[3] = tested on: LPS-treated mice; assay: Nigral TH-IR in LPS-treated mice; type: in vivo; settings: 24 mg/kg i.p.
Source text: FIGS. 8A-8B. […] Magnification=40×.
as §1

[4] = tested on: MA-treated mice; assay: Methamphetamine (MA)-induced hyperthermia; type: in vivo; settings: 24 mg/kg; MA 7.5 mg/kg i.p. x 4 at 2-h intervals
Description: Rectal temperature was recorded at 40 min after each MA treatment. […] Mice were sacrificed at 3 days after final MA injection.
FIGS. 10A-10B show effect of morphinans on the methamphetamine (MA)-induced hyperthermia. Mice received i.p. injections of MA (four injections of 7.5 mg/kg each) at 2-h intervals under the ambient temperature of 22.0±0.5° C. Temperatures were recorded at 40 min after each MA treatment (Arrow=MA injection).

[5] = tested on: MA-treated mice; assay: Striatal dopamine and metabolites in MA-treated mice; type: in vivo; settings: for Concentration DA in the striatum: 3 days after final MA
Source text: Mice were sacrificed at 3 days after final MA injection.

[6] = tested on: LPS-treated mice; assay: LPS-induced mortality with CB1 agonist/antagonist and HM; type: in vivo; settings: given alone: HM 20, ACEA 2, AM-251 0.3 mg/kg; 2 weeks after bilateral intrastriatal LPS
Description: Mortality was observed by 2 weeks after bilateral LPS intrastriatal injection (one side: 2 μg×2).

[7] = tested on: MPTP-treated mice; assay: MPTP model, HM versus L-dopa/carbidopa: nigral TH-IR; type: in vivo; settings: HM 24 mg/kg i.p., L-dopa 200 mg/kg p.o., carbidopa 20 mg/kg p.o.
Description: FIGS. 21A-21G show effects of carbidopa, L-dopa, carbidopa+L-dopa and HM on the nigral tyrosine hydroxylase-like immunoreactivity (TH-IR) of the mice treated with MPTP. […] Magnification=40×.
A prescription drug for treating Parkinsonian patients is L-dopa or carbidopa plus L-dopa. Thus, the neuroprotective effects of HM was compared with L-dopa, carbidopa, or carbidopa plus L-dopa. […] Locomotor activity was examined for 60 min after final treatment of MPTP. Mice were sacrificed at 24 h after final MPTP administration. HM (24 mg/kg, i.p.), L-dopa (200 mg/kg, p.o.) with or without carbidopa (20 mg/kg, p.o.) was administered for 2 weeks before first MPTP challenge.

[8] = tested on: LPS-treated mice; assay: LPS model, HM versus L-dopa/carbidopa: mortality; type: in vivo; settings: intrastriatal LPS 2 μg x 4/head; 2 weeks
Description: Mortality was observed by 2 weeks after LPS injection. *P<0.01 vs. Saline+LPS (x^2-test).
The neuroprotective effect of HM was compared with L-dopa, carbidopa, or carbidopa plus L-dopa in response to dopaminergic damage induced by LPS. Intrastriatal injection of LPS (2 μg×4/head) produced high mortality (ten animals died out of twelve animals in the 2 weeks after LPS administration).

[9] = tested on: LPS-treated mice; assay: LPS model, HM versus L-dopa/carbidopa: locomotor activity; type: in vivo; settings: 3 weeks after LPS
Description: Locomotor activity was examined for 60 min at 3 weeks after LPS treatment. LPS-induced significant reduction (P<0.01 vs. saline treatment) in locomotor activity was attenuated by L-dopa (P<0.05), carbidopa+L-dopa (P<0.05) or HM (P<0.01) (FIGS. 24 and 25).

[10] = tested on: MA-treated mice; assay: MA model, HM versus L-dopa/carbidopa: hyperthermia; type: in vivo; settings: MA 7.5 mg/kg i.p. x 4
Description: FIGS. 31A-31B show effect of drugs on the MA-induced hyperthermia. Mice received MA injections as 2 hrs' time interval under the ambient temperature of 22.0±0.5° C.
Experimental paradigm for MA with or without compounds is in FIG. 30. Treatment with MA (7.5 mg/kg, i.p.×four times as two hour time interval) produces hyperthermia (P<0.01).

[11] = tested on: MA-treated mice; assay: MA model, HM versus L-dopa/carbidopa: nigral TH-IR; settings: mouse, in vivo
Source text: FIGS. 33A-33G show effects of carbidopa, L-dopa, carbidopa plus L-dopa, and HM on the nigral tyrosine hydroxylase-like immunoreactivity (TH-IR) of the mice treated with MA. […] Magnification=40×.

[12] = tested on: cocaine-treated mice; assay: Cocaine-induced conditioned place preference with CB1 modulation
Description: The control mice received an i.p. injection of saline just before entering the white or black compartment. Cocaine or MA dissolved in saline was administered immediately before the mice were placed in the white compartment. To test the effect of cocaine alone or MA alone or in combination with exemplified morphinans (DM, HM, AM, CM or DF), each morphinan was administered 2 hr before cocaine or saline injection.
On day 1, the mice were pre-exposed to the test apparatus for 5 min. The guillotine doors were raised and the mice were allowed to move freely between the two compartments. On day 2, the time each mouse spent in each compartment was recorded for 15 min. On days 3, 5, 7, 9, 11, and 13, the mice were injected with cocaine before being confined to the white compartment, the non-preferred side, for 20 min. On days 4, 6, 8, 10, and 12, the mice were injected with saline before being confined to the black compartment, the preferred side, for 20 min. On day 14, the guillotine doors were raised. The mice were initially placed in the tunnel and the time spent by the mice in the two compartments was recorded for 15 min. The scores were calculated from the differences in the time spent in the white compartment in the testing and pre-testing phases.

[13] = tested on: NMDA receptor associated PCP sites; settings: cited from earlier work
[14] = tested on: LPS-treated mice; assay: Hypokinesia induced by intrastriatal LPS; settings: 12 or 24 mg/kg, twice before bilateral intrastriatal LPS
[15] = tested on: MPTP-treated mice; assay: Striatal dopamine and metabolites (HPLC-EC) in MPTP-treated mice; settings: for Concentration DA in the striatum: mean ± S.E.M., 8 animals
Description: Each morphinan was administered 30 min prior to every injection of MPTP for last three days (from day 4th to day 7th). Animals were sacrificed 24 h after the last MPTP treatment.
Brains were rapidly removed and cut into 1 mm coronal sections on ice. The striatum was punched using a fine pasteur pipette (3, 21, 22), and stored at −70° C. DA and its metabolites, 3,4-dihydroxyphenylacetic acid (DOPAC) and homovanilic acid (HVA) were measured by HPLC-eletrochemical detection (3, 21, 22). Briefly, the striatum was homogenized in 0.2 M perchloric acid containing 3,4-dihydroxybenzylamine as an internal standard (10 mg wet weight of tissue per ml). The homogenate was centrifuged and a 20-μl aliquot of the supernatant was injected into the HPLC equipped with an ODS-C18 column. The mobile phase was comprised of 26 ml of acetonitrile, 21 ml of tetrahydrofuran and 960 ml of 0.15 M monochloroacetic acid (pH 3.0) containing 50 mg/l of EDTA and 200 mg/l of sodium octyl sulfate. The amount of DA, DOPAC and HVA were determined by comparison of peak height ratio of tissue sample with standards, and were expressed in nanograms per 100 mg of wet weight of tissue.
Each morphinan was administered 30 min before every injection of MPTP for last three days. Animals were sacrificed at 24 h after the last MPTP injection.

[16] = tested on: MA-treated mice; assay: MA-induced loss of nigral TH-IR with CB1 agonist/antagonist and HM; settings: given alone
Description: Compounds were administered 3 days before and after MA injection.

## Oc1ccc2c(c1)[C@@]13CCCC[C@H]1[C@@H](C2)NCC3 [HM, 3-hydroxymorphinan]
[1]
  effect on MPTP-induced reduction in locomotor activity: significantly prevented MPTP-induced reduction in locomotor activity
[2]; 24 mg/kg pretreatment
  effect on LPS-induced reductions in striatal DA, DOPAC and HVA: significantly protected
[2]; morphinan 12 (mg/kg) + LPS
  Concentration DOPAC in the striatum: 83 ± 10 ng/100 mg wet tissue
  Concentration HVA in the striatum: 86 ± 8 ng/100 mg wet tissue
[2]; morphinan 12 (mg/kg) + LPS, mean ± S.E.M., 8 animals
  Concentration DA in the striatum: 682 ± 70 ng/100 mg wet tissue
[2]; morphinan 24 (mg/kg) + LPS
  Concentration DOPAC in the striatum: 112 ± 11^d ng/100 mg wet tissue
  Concentration HVA in the striatum: 102 ± 10^b ng/100 mg wet tissue
  Concentration DA in the striatum: 916 ± 98^d ng/100 mg wet tissue
[3]
  effect on LPS-induced reduction in nigral TH-positive cells: significantly attenuated the reduction in TH-positive cells
[4]
  effect on MA-induced hyperthermia (rectal temperature): most efficacious
[5]; 24 mg/kg pretreatment
  effect on MA-induced reductions in striatal DA, DOPAC and HVA: significantly protected
[5]; morphinan 12 (mg/kg) + MA
  Concentration DOPAC in the striatum: 88 ± 10 ng/100 mg wet tissue
  Concentration HVA in the striatum: 82 ± 8 ng/100 mg wet tissue
[5]; morphinan 12 (mg/kg) + MA, mean ± S.E.M., 8 animals
  Concentration DA in the striatum: 685 ± 64 ng/100 mg wet tissue
[5]; morphinan 24 (mg/kg) + MA
  Concentration DOPAC in the striatum: 103 ± 9^d^ ng/100 mg wet tissue
  Concentration HVA in the striatum: 100 ± 11^c ng/100 mg wet tissue
  Concentration DA in the striatum: 864 ± 82^d ng/100 mg wet tissue
[6]
  effect on LPS-induced mortality: No animal died
[7]
  effect on MPTP-induced nigral loss in TH-IR: significantly attenuated
[8]
  effect on mortality induced by LPS: most pronounced
[9]
  effect on LPS-induced reduction in locomotor activity: attenuated
[10]
  effect on MA-induced hyperthermia: significantly attenenuated
[11]
  effect on MA-induced nigral loss in TH-IR: more pronounced than that of carbidopa+L-dopa
[12]; AM 251 0.3, HM 20, ACEA 2 mg/kg, no cocaine
  CPP response of the compound itself: Neither saline-, AM 251 (0.3 mg/kg)-treated nor HM (20 mg/kg)-treated animals showed any CPP response
[12]; cocaine 10 mg/kg
  effect on cocaine-induced CPP: significantly reduced
[13]
  affinity for NMDA receptor associated PCP sites: very low affinities
[14]
  effect on LPS-induced decrease in locomotor activity: significantly prevented LPS-induced decrease in locomotor activity
[15]; 24 mg/kg pretreatment
  effect on MPTP-induced reductions in striatal DA, DOPAC and HVA: significantly protected
[15]; morphinan 12 (mg/kg) + MPTP
  Concentration DOPAC in the striatum: 68 ± 7 ng/100 mg wet tissue
  Concentration HVA in the striatum: 84 ± 8 ng/100 mg wet tissue
  Concentration DA in the striatum: 582 ± 74 ng/100 mg wet tissue
[15]; morphinan 24 (mg/kg) + MPTP
  Concentration DOPAC in the striatum: 98 ± 9^c ng/100 mg wet tissue
  Concentration HVA in the striatum: 104 ± 10^c ng/100 mg wet tissue
  Concentration DA in the striatum: 896 ± 79^c ng/100 mg wet tissue
[16]
  effect on MA-induced reduction in nigral TH-IR: Prevents Methamphetamine (MA)-induced Reduction in Tyrosine Hydroxylase-like Immunoreactivity

— patent publication US7691874B2, “Neuroprotective properties of dextrorotatory morphinans” (priority 2004, dated 2010)
